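Each compound was tested at five concentrations against cells in 96-well plates for 48 hours. GI50: concentration for 50% inhibition of growth.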 Activity calls are given as the source filed them. Cut-off read from the data, not from the text of the source: active = GI50 up to about 1.1 µM and inactive = higher.
What was measured:
Test in all cases: NCI-60 cell line screen, 48 h
OVCAR-4 = tested on: OVCAR-4
DU-145 = tested on: DU-145
786-0 = tested on: 786-0
BT-549 = tested on: BT-549
OVCAR-5 = tested on: OVCAR-5
RPMI-8226 = tested on: RPMI-8226
LOX IMVI = tested on: LOX IMVI
CCRF-CEM = tested on: CCRF-CEM
A498 = tested on: A498
U-251 = tested on: U-251
SK-MEL-28 = tested on: SK-MEL-28
UACC-62 = tested on: UACC-62
OVCAR-3 = tested on: OVCAR-3
ACHN = tested on: ACHN
SK-MEL-2 = tested on: SK-MEL-2
UO-31 = tested on: UO-31
MOLT-4 = tested on: MOLT-4
TK-10 = tested on: TK-10
RXF 393 = tested on: RXF 393
SNB-75 = tested on: SNB-75

Row | Structure (SMILES) | GI50 (OVCAR-4) | GI50 (DU-145) | GI50 (786-0) | GI50 (BT-549) | GI50 (OVCAR-5) | GI50 (RPMI-8226) | GI50 (LOX IMVI) | GI50 (CCRF-CEM) | GI50 (A498) | GI50 (U-251) | GI50 (SK-MEL-28) | GI50 (UACC-62) | GI50 (OVCAR-3) | GI50 (ACHN) | GI50 (SK-MEL-2) | GI50 (UO-31) | GI50 (MOLT-4) | GI50 (TK-10) | GI50 (RXF 393) | GI50 (SNB-75)
1 | COc1ccc2c3c1O[C@H]1[C@@H](O)CC[C@@]4(O)[C@@H](C2)N(C)CC[C@]314 | > 100 µM (inactive) | > 100 µM (inactive) | > 100 µM (inactive) | > 100 µM (inactive) | > 100 µM (inactive) | > 100 µM (inactive) | > 100 µM (inactive) | > 100 µM (inactive) | > 100 µM (inactive) | > 100 µM (inactive) | > 100 µM (inactive) | > 100 µM (inactive) | > 100 µM (inactive) | > 100 µM (inactive) | > 100 µM (inactive) | > 100 µM (inactive) | > 100 µM (inactive) | > 100 µM (inactive) | – | –
2 | CC(=O)N1N=C(c2cc(C)ccc2O)CC1c1cccc(Cl)c1 (stereo unspecified) | 13.7 µM (inactive) | 51.9 µM (inactive) | 21.7 µM (inactive) | 33.3 µM (inactive) | 30.1 µM (inactive) | 6.24 µM (inactive) | 12.5 µM (inactive) | 13.4 µM (inactive) | – | 13.8 µM (inactive) | – | 7.6 µM (inactive) | 32.1 µM (inactive) | 16.1 µM (inactive) | 10.3 µM (inactive) | 17.4 µM (inactive) | 4.26 µM (inactive) | 17.4 µM (inactive) | 11.3 µM (inactive) | –
3 | C[C@]12CC[C@H](OC3OC(CO)C(O)C(O)C3O)C[C@H]1CC[C@@H]1[C@@H]2CC[C@]2(C)[C@@H](C3=CCOC3=O)CC[C@]12O (stereo partly specified) [ACTODIGIN] | 41 µM (inactive) | > 100 µM (inactive) | > 100 µM (inactive) | > 100 µM (inactive) | > 50 µM (inactive) | – | 0.495 µM (active) | – | 5.48 µM (inactive) | 4.73 µM (inactive) | 22.5 µM (inactive) | 6.64 µM (inactive) | – | 14.5 µM (inactive) | 30.9 µM (inactive) | 40.3 µM (inactive) | – | > 100 µM (inactive) | 8.49 µM (inactive) | 6.84 µM (inactive)
4 | CC(C)(CO)N1C(=O)c2ccccc2C1(O)c1ccc(Cl)cc1 (stereo unspecified) | 94 µM (inactive) | > 100 µM (inactive) | > 100 µM (inactive) | > 100 µM (inactive) | > 100 µM (inactive) | > 100 µM (inactive) | – | > 100 µM (inactive) | – | > 100 µM (inactive) | > 100 µM (inactive) | > 100 µM (inactive) | 88.7 µM (inactive) | > 100 µM (inactive) | 37.8 µM (inactive) | 63.2 µM (inactive) | > 100 µM (inactive) | > 100 µM (inactive) | 39.9 µM (inactive) | > 100 µM (inactive)
5 | N#CC(C(=O)O)C(c1c(Cl)cccc1Cl)C(C#N)C(=O)O (stereo unspecified) | > 100 µM (inactive) | > 100 µM (inactive) | > 100 µM (inactive) | > 100 µM (inactive) | > 100 µM (inactive) | > 100 µM (inactive) | > 100 µM (inactive) | – | > 100 µM (inactive) | > 100 µM (inactive) | > 100 µM (inactive) | > 100 µM (inactive) | > 100 µM (inactive) | > 100 µM (inactive) | > 100 µM (inactive) | > 100 µM (inactive) | > 100 µM (inactive) | > 100 µM (inactive) | – | –
6 | C/C=C/C[C@@H](C)C(=O)C1C(=O)N[C@@H](C(C)C)C(=O)N(C)CC(=O)N(C)[C@@H](CC(C)C)C(=O)N[C@@H](C(C)C)C(=O)N(C)[C@@H](CC(C)C)C(=O)N[C@@H](C)C(=O)N[C@@H](C)C(=O)N(C)[C@@H](CC(C)C)C(=O)N(C)[C@@H](CC(C)C)C(=O)N(C)[C@@H](C(C)C)C(=O)N1C (stereo partly specified) | 2.74 µM (inactive) | 4.06 µM (inactive) | 7.76 µM (inactive) | 4.98 µM (inactive) | 7.87 µM (inactive) | – | 2.82 µM (inactive) | 4.06 µM (inactive) | – | 5.94 µM (inactive) | 6.37 µM (inactive) | 4.5 µM (inactive) | 4.09 µM (inactive) | 4.4 µM (inactive) | – | 3.78 µM (inactive) | 2.35 µM (inactive) | 6.1 µM (inactive) | 3.03 µM (inactive) | 4.98 µM (inactive)
7 | CCCCCCc1cc2cc(-c3csc(-c4ccc(OC)cc4)n3)c(=O)oc2cc1O | 2.48 µM (inactive) | 11.7 µM (inactive) | 5.28 µM (inactive) | 2.36 µM (inactive) | 26.7 µM (inactive) | 33.8 µM (inactive) | 12.6 µM (inactive) | 22.6 µM (inactive) | – | 5.24 µM (inactive) | 10.2 µM (inactive) | 6.55 µM (inactive) | – | 10.9 µM (inactive) | 15.8 µM (inactive) | 6.7 µM (inactive) | 24.3 µM (inactive) | 14 µM (inactive) | 13.1 µM (inactive) | 14.7 µM (inactive)
8 | COc1ccc(N(c2ccc(C#N)cc2)c2ccc(C#N)cc2)cc1 | > 100 µM (inactive) | > 100 µM (inactive) | > 100 µM (inactive) | > 100 µM (inactive) | > 100 µM (inactive) | – | 69.8 µM (inactive) | 3.07 µM (inactive) | 65.3 µM (inactive) | > 100 µM (inactive) | > 100 µM (inactive) | > 100 µM (inactive) | 82.4 µM (inactive) | > 100 µM (inactive) | > 100 µM (inactive) | 22.2 µM (inactive) | 5.2 µM (inactive) | > 100 µM (inactive) | – | > 100 µM (inactive)
9 | CCOc1ccc(N/C(=C(/C(Cl)=C(/Cl)Nc2ccccc2)[N+](=O)[O-])n2nnc3ccccc32)cc1 | 42.5 µM (inactive) | 45.9 µM (inactive) | 22.2 µM (inactive) | 13.3 µM (inactive) | 35.5 µM (inactive) | 50.7 µM (inactive) | – | – | > 100 µM (inactive) | 18.2 µM (inactive) | 22.8 µM (inactive) | 17.8 µM (inactive) | 24.1 µM (inactive) | 25.8 µM (inactive) | 26.3 µM (inactive) | 17.1 µM (inactive) | 14.8 µM (inactive) | 32.9 µM (inactive) | – | 57.1 µM (inactive)
10 | O=C(CCCN1CCC(O)(c2ccc(Cl)cc2)CC1)c1ccc(F)cc1 [HALOPERIDOL] | 85.7 µM (inactive) | 85.1 µM (inactive) | 19.4 µM (inactive) | 31 µM (inactive) | 28.8 µM (inactive) | 25.1 µM (inactive) | 18 µM (inactive) | 41.4 µM (inactive) | – | 20.7 µM (inactive) | 18 µM (inactive) | 2.31 µM (inactive) | 18.3 µM (inactive) | 39.4 µM (inactive) | 20.7 µM (inactive) | 15.7 µM (inactive) | 89.7 µM (inactive) | 39.8 µM (inactive) | – | 23.8 µM (inactive)
11 | Cc1ccc(-c2cc(-c3ccc(Cl)cc3)nc(/N=C3\C(=O)N(CN4CCOCC4)c4ccccc43)n2)cc1 | 28.7 µM (inactive) | 33.2 µM (inactive) | 21.4 µM (inactive) | 27.5 µM (inactive) | 21.6 µM (inactive) | – | 24.2 µM (inactive) | 14.3 µM (inactive) | 18.8 µM (inactive) | 23.7 µM (inactive) | 49.1 µM (inactive) | 20 µM (inactive) | 33.9 µM (inactive) | 23.3 µM (inactive) | 18.3 µM (inactive) | – | 8.69 µM (inactive) | 31 µM (inactive) | 16.4 µM (inactive) | 25.4 µM (inactive)
12 | COc1cc(C/C=C/c2ccccc2)c(OC)cc1O [VIOLASTYRENE] | 18 µM (inactive) | 17.3 µM (inactive) | 13.8 µM (inactive) | 24.7 µM (inactive) | 24.7 µM (inactive) | 15.6 µM (inactive) | 17.7 µM (inactive) | 17.1 µM (inactive) | 80.4 µM (inactive) | 18.7 µM (inactive) | 18.7 µM (inactive) | 16.8 µM (inactive) | 20.1 µM (inactive) | 23.6 µM (inactive) | 23.2 µM (inactive) | 16.8 µM (inactive) | 18.6 µM (inactive) | 18.8 µM (inactive) | – | 24.6 µM (inactive)
13 | C#C[C@]1(O)CC[C@H]2[C@@H]3CCC4=C/C(=N/OCCN(C)C)CC[C@]4(C)[C@H]3CC[C@@]21C | > 100 µM (inactive) | 22.3 µM (inactive) | 29.2 µM (inactive) | 65.9 µM (inactive) | 56.8 µM (inactive) | 28.4 µM (inactive) | 37.8 µM (inactive) | 16.3 µM (inactive) | 41.4 µM (inactive) | 33.6 µM (inactive) | 51.5 µM (inactive) | 32.5 µM (inactive) | 22 µM (inactive) | 54.7 µM (inactive) | 31.7 µM (inactive) | 62.5 µM (inactive) | 32.9 µM (inactive) | > 100 µM (inactive) | – | 30.1 µM (inactive)
14 | CCCCC(=O)/C=c1/cc(C)[nH]c2cccc3cnn1c32 | > 100 µM (inactive) | > 100 µM (inactive) | > 100 µM (inactive) | > 100 µM (inactive) | > 100 µM (inactive) | 61.9 µM (inactive) | > 100 µM (inactive) | > 100 µM (inactive) | > 100 µM (inactive) | > 100 µM (inactive) | > 100 µM (inactive) | > 100 µM (inactive) | > 100 µM (inactive) | > 100 µM (inactive) | > 100 µM (inactive) | > 100 µM (inactive) | > 100 µM (inactive) | > 100 µM (inactive) | – | –
15 | Cc1ccc(S(=O)(=O)NC(=O)NC(CCC(N)=O)C(=O)O)cc1 (stereo unspecified) | > 100 µM (inactive) | > 100 µM (inactive) | > 100 µM (inactive) | > 100 µM (inactive) | > 100 µM (inactive) | > 100 µM (inactive) | > 100 µM (inactive) | > 100 µM (inactive) | – | > 100 µM (inactive) | > 100 µM (inactive) | > 100 µM (inactive) | – | > 100 µM (inactive) | > 100 µM (inactive) | > 100 µM (inactive) | > 100 µM (inactive) | > 100 µM (inactive) | > 100 µM (inactive) | > 100 µM (inactive)

Reference: ChEMBL document CHEMBL1201862, “PubChem BioAssay data set” (2004)
